Results taken from patent US12157717B2, “Compounds for the treatment of bovine or swine respiratory disease” (Intervet Inc., priority 2018, dated 2024).
In brackets after ≈: the same amount, converted by molar mass.

Key:
Assay type in all cases: cell-based
[1] = system: Mannheimia haemolytica MH 13065 (XB0446-6003.9); assay: MIC, broth-microdilution (CLSI), strain MH 13065; conditions: Mannheimia haemolytica XB0446-6003.9, BRD field isolate
Description: (§1) The Minimum inhibitory concentrations (MIC) of compounds according to the invention for a number of veterinary bacterial pathogens were determined by the broth-microdilution method according to CLSI document VETO 1-A4.
(§2) Microdilution trays containing a doubling dilution series of the test compound were used for the tests. The MIC results were interpreted according to the CLSI documents VET01-S3. The lowest concentration of compound at which no visible growth (i.e. no turbidity) detected by the unaided eye was recorded as the MIC.

[2] = system: Pasteurella multocida PM 6391 (ATCC 43137); assay: MIC, broth-microdilution (CLSI), strain PM 6391; conditions: Pasteurella multocida ATCC 43137, reference strain
Description: as §1, §2

[3] = system: Pasteurella multocida PM 12080 (IV102277-0093); assay: MIC, broth-microdilution (CLSI), strain PM 12080; conditions: Pasteurella multocida IV102277-0093, BRD field isolate
Description: as §1, §2

[4] = system: Mannheimia haemolytica MH 12587 (1071), macrolide-resistance: erm+, E+; assay: MIC, broth-microdilution (CLSI), strain MH 12587; conditions: Mannheimia haemolytica 1071, BRD field isolate
Description: as §1, §2

[5] = system: Mannheimia haemolytica MH 6357 (M7/2); assay: MIC, broth-microdilution (CLSI), strain MH 6357; conditions: Mannheimia haemolytica M7/2, reference strain (cattle infection strain)
Description: as §1, §2

[6] = system: Mannheimia haemolytica MH 6374 (ATCC 33396); assay: MIC, broth-microdilution (CLSI), strain MH 6374; conditions: Mannheimia haemolytica ATCC 33396, reference strain
Description: as §1, §2

[7] = system: Pasteurella multocida PM 6267 (P 2225 (L386)); assay: MIC, broth-microdilution (CLSI), strain PM 6267; conditions: Pasteurella multocida P 2225 (L386), reference strain (mouse infection strain)
Description: as §1, §2

[8] = system: Mannheimia haemolytica MH 10720 (154); assay: MIC, broth-microdilution (CLSI), strain MH 10720; conditions: Mannheimia haemolytica 154, BRD field isolate
Description: as §1, §2

[9] = system: Mannheimia haemolytica MH 13093 (XB0472-6014.1); assay: MIC, broth-microdilution (CLSI), strain MH 13093; conditions: Mannheimia haemolytica XB0472-6014.1, BRD field isolate
Description: as §1, §2

[10] = system: Pasteurella multocida PM 10775 (080130003051); assay: MIC, broth-microdilution (CLSI), strain PM 10775; conditions: Pasteurella multocida 080130003051, BRD field isolate
Description: as §1, §2

SMILES | MIC MH 13065 [1] [µM] | MIC PM 6391 [2] [µM] | MIC PM 12080 [3] [µM] | MIC MH 12587 [4] [µM] | MIC MH 6357 [5] [µM] | MIC MH 6374 [6] [µM] | MIC PM 6267 [7] [µM] | MIC MH 10720 [8] [µM] | MIC MH 13093 [9] [µM] | MIC PM 10775 [10] [µM]
CNC(=O)C(C(=O)NO)N(C)C(=O)c1ccc(C#Cc2ccc(CNCc3ccccn3)cc2)cc1 (stereo not shown) [Compound 28] | 3.1 (≈ 1.51 µg/mL) | 3.1 (≈ 1.51 µg/mL) | 1.6 (≈ 0.777 µg/mL) | 12.5 (≈ 6.07 µg/mL) | 6.3 (≈ 3.06 µg/mL) | 3.1 (≈ 1.51 µg/mL) | ≤0.1 | 1.6 (≈ 0.777 µg/mL) | 6.3 (≈ 3.06 µg/mL) | 0.2 (≈ 0.0971 µg/mL)
CNC(=O)C(NC(=O)c1ccc(C#Cc2ccc(CNCc3ccc(OC)cc3)cc2)cc1)C(=O)NO (stereo not shown) [Compound 6] | 0.8 (≈ 0.4 µg/mL) | 0.2 (≈ 0.1 µg/mL) | ≤0.1 | 1.6 (≈ 0.801 µg/mL) | 0.4 (≈ 0.2 µg/mL) | 0.8 (≈ 0.4 µg/mL) | ≤0.1 | ≤0.1 | 1.6 (≈ 0.801 µg/mL) | ≤0.1
CCCNCc1ccc(C#Cc2ccc(C(=O)NC(C(=O)NC)C(=O)NO)cc2)cc1 (stereo not shown) [Compound 10] | 3.1 (≈ 1.31 µg/mL) | 0.8 (≈ 0.338 µg/mL) | 0.8 (≈ 0.338 µg/mL) | 12.5 (≈ 5.28 µg/mL) | 3.1 (≈ 1.31 µg/mL) | 6.3 (≈ 2.66 µg/mL) | 0.8 (≈ 0.338 µg/mL) | 1.6 (≈ 0.676 µg/mL) | 1.6 (≈ 0.676 µg/mL) | 0.2 (≈ 0.0845 µg/mL)
CNC(=O)C(NC(=O)c1ccc(C#Cc2ccc(CNCc3cccnc3)cc2)cc1)C(=O)NO (stereo not shown) [Compound 11] | 0.8 (≈ 0.377 µg/mL) | 0.2 (≈ 0.0943 µg/mL) | ≤0.1 | 0.8 (≈ 0.377 µg/mL) | 0.4 (≈ 0.189 µg/mL) | 0.8 (≈ 0.377 µg/mL) | ≤0.1 | 0.2 (≈ 0.0943 µg/mL) | 1.6 (≈ 0.754 µg/mL) | ≤0.1
CNC(=O)C(C(=O)NO)N(C)C(=O)c1ccc(C#Cc2ccc(CNC3CCCC3)cc2)cc1 (stereo not shown) [Compound 26] | 12.5 (≈ 5.78 µg/mL) | 1.6 (≈ 0.74 µg/mL) | 1.6 (≈ 0.74 µg/mL) | 25 (≈ 11.6 µg/mL) | 6.3 (≈ 2.91 µg/mL) | 12.5 (≈ 5.78 µg/mL) | 0.8 (≈ 0.37 µg/mL) | 3.1 (≈ 1.43 µg/mL) | 25 (≈ 11.6 µg/mL) | 0.4 (≈ 0.185 µg/mL)
CNC(=O)C(NC(=O)c1ccc(C#Cc2ccc(CNCC3CCCO3)cc2)cc1)C(=O)NO (stereo not shown) [Compound 17] | 3.1 (≈ 1.44 µg/mL) | 0.4 (≈ 0.186 µg/mL) | 0.2 (≈ 0.0929 µg/mL) | 12.5 (≈ 5.81 µg/mL) | 3.1 (≈ 1.44 µg/mL) | 6.3 (≈ 2.93 µg/mL) | ≤0.1 | 0.8 (≈ 0.372 µg/mL) | 12.5 (≈ 5.81 µg/mL) | ≤0.1
CCCNCc1ccc(C#Cc2ccc(C(=O)N(C)C(C(=O)NC)C(=O)NO)cc2)cc1 (stereo not shown) [Compound 27] | 6.3 (≈ 2.75 µg/mL) | 3.1 (≈ 1.35 µg/mL) | 1.6 (≈ 0.698 µg/mL) | 12.5 (≈ 5.46 µg/mL) | 6.3 (≈ 2.75 µg/mL) | 6.3 (≈ 2.75 µg/mL) | 0.2 (≈ 0.0873 µg/mL) | 1.6 (≈ 0.698 µg/mL) | 12.5 (≈ 5.46 µg/mL) | 0.4 (≈ 0.175 µg/mL)
